From patent US10428124B2, “Timothy grass allergens and methods and uses for immune response modulation” (LA JOLLA INSTITUTE FOR ALLERGY AND IMMUNOLOGY, priority 2012, dated 2019)

Legend:
[1] = tested on: PBMCs from TG allergic donors; assay: IL-5 ELISPOT of TG extract-expanded PBMCs from TG allergic donors (peptide pools, single peptides, TG extract); format: cell-based, human
Protocol: Each donor was recruited following Institutional Review Board approval (Federal Wide Assurance number 00000032) and informed consent and assigned a study identification number. Donors were tested for allergen reactivity by skin prick tests to extracts from 32 common allergens. TG allergic donors were identified as having a skin reaction with a wheal of 5 mm in diameter to TG and a clinical history consistent with seasonal grass pollen allergy. Donors that had received specific immunotherapy were excluded. Non-allergic donors were identified as having negative skin prick tests to all allergens and no clinical history of allergy.
PBMCs were isolated by density gradient centrifugation from one unit of blood (˜450 ml) and cryo-preserved as described previously (12). For in vitro expansions, PBMCs were thawed and cultured in RPMI 1640 (Ω Scientific, Tarzana, Calif.) supplemented with 5% human AB serum (Cellgro, Herndon, Va.) at a density of 2×10^6 cells/ml in 24-well plates (BD Biosciences, San Jose, Calif.) and stimulated with TG pollen extract ([…]) (Greer, Lenoir, N.C.). Cells were kept at 37° C., 5% CO2 and additional IL-2 and IL-7 (10 U/ml, eBioscience, San Diego, Calif.) was added every 3 d after initial antigenic stimulation. On day 14, cells were harvested and screened for reactivity against TG-specific peptide pools (16-25 peptides/pool, averaging 20 peptides/pool). On day 17, peptides from positive pools were tested individually to identify the reactive epitopes.
The production of IL-5 from cultured PBMCs in response to antigen stimulation was measured by ELISPOT as described previously (12). Briefly, 1×10^5 cells/well were incubated with peptide, peptide pool or TG extract (10 μg/ml, 5 μg/ml and 50 μg/ml, respectively). After 24 h, cells were removed and plates were incubated with 2 μg/ml biotinylated anti-human IL-5 Ab (Mabtech) at 37° C. After 2 h, plates were washed and avidin-peroxidase-complex was added (Vector Laboratories, Burlingame, Calif.) for 1 h at RT. Peroxidase-conjugated spots were developed with 3-amino-9-ethylcarvazole solution (Sigma-Aldrich, St. Louis, Mo.). Criteria for peptide pool positivity were 100 SFCs/106 PBMCs, p 0.05, and a stimulation index (SI) 2. Criteria for individual peptides were the same except a minimum of 20 SFCs was counted as positive.

human IgE = assay: 2D gel immunoblot of TG extract with serum pool from 8 TG-allergic donors, IgE reactivity; format: binding; settings: for Antibody reactvity IgE/IgG: IgE: E− = not IgE reactive
Protocol: (§1) 2D DIGE (Difference Gel Electrophoresis) analysis. The complete 2D DIGE analysis was performed by Applied Biomics (Hayward, Calif., US). Briefly, TG extract was run on two 2D gels (3-10 pH range, 12% SDS-acrylamide gel), one was Coomassie blue stained, the other was blotted onto a nitrocellulose membrane. The membrane was then incubated with 5% dried milk in PBS/0.05% Tween to block non-specific binding and subsequently probed with a serum pool from 8 TG-allergic individuals at a dilution of 1:250. IgE and IgG binding was detected using goat anti-human IgE and rabbit anti-human IgG (Sigma-Aldrich, St. Louis, Mo.) and visualized using Cy2-conjugated donkey anti-goat IgG and Cy5-conjugated donkey […] IgG antibodies (Biotium, Hayward, Calif.).
(§2) Mass spectral protein identification was performed by Applied Biomics (Hayward, Calif., US). Briefly, spots of interest were selected from the 2D blot and the corresponding spots were identified on the stained SDS gel and cut out, washed several times to remove staining dye and other inhibitory chemicals. The spots were then dried to absorb maximum digestion buffer. Dried 2D gel spots were rehydrated in digestion buffer containing trypsin. Proteins were digested in-gel at 37° C. and then extracted from the gel with TFA extraction buffer. Subsequently the peptides were desalted using C-18 Zip-tips (Millipore) and mixed with CHCA matrix (alpha-cyano-4-hydroxycinnamic acid) and spotted into wells of a MALDI plate. Mass spectra of the peptides in each sample were obtained using an Applied Biosystems Proteomics Analyzer. The spectra were compared to the amino acid sequences encoded by putative ORFs from the de novo assembled TG pollen transcripts. […] The amino acid sequences encoded by these ORFs were clustered using a custom script at a sequence similarity threshold of 90% to group together highly similar protein sequences. These sequences are encoded by different transcripts from the current assembly, which could arise from splice variants, allelic variation between cells of TG pollen, and from gene families with multiple members. Amino acid sequences that form one cluster are assigned one putative protein ID (Table 1).

human IgG = assay: 2D gel immunoblot of TG extract with serum pool from 8 TG-allergic donors, IgG reactivity; format: binding
Protocol: as §1, §2

[2] = tested on: PBMCs from TG allergic donors; assay: IFNg ELISPOT of TG extract-expanded PBMCs from TG allergic donors (single peptides); format: cell-based, human; settings: T cell recognition in TG allergic patients
[3] = tested on: PBMCs from TG allergic donors; assay: as above; format: cell-based, human
[4] = tested on: PBMCs from TG allergic donors; assay: as above; format: cell-based, human; settings: T cell recognition in TG allergic patients; for Total response IFNg Events: number of positive responses
[5] = tested on: PBMCs from TG allergic donors; assay: as above; format: cell-based, human; settings: TG allergic patients; number of positive responses
[6] = tested on: PBMCs from TG allergic donors; assay: IFNg ELISPOT of TG extract-expanded PBMCs (single peptides); format: cell-based, human; settings: for Total response IFNg Events: number of positive response events to the 15-mer peptide
[7] = T cell recognition in TG allergic patients, number of positive responses
[8] = reactivity of the parent TG antigen, given per peptide
[9] = reactivity of the parent TG antigen, given per peptide, G− = not IgG reactive
[10] = number of positive response events to the 15-mer peptide
[11] = reactivity of the parent antigen
[12] = reactivity of the parent antigen, G+ = IgG reactive, G− = not

**Q.** Which “Total response IL-5 Events” value ([1]; IL-5, number of positive response events) does the source give for “252 (SAPALRILRSFPSHS; Phleum pratense) [Peptide 252]” here?
**A.** 1

**Q.** And the “Total response IL-5 SFC” value ([1]; IL-5, total SFC)?
**A.** 97 SFC

**Q.** What about the “Total response IL-5 SFC” value ([1]; T cell recognition in TG allergic patients) of the same substance?
**A.** 97 SFC

**Q.** What about the “Total response IL-5 Events” value ([1]; T cell recognition in TG allergic patients, number of response events) of the same substance?
**A.** 1

**Q.** And the “Antibody reactvity IgE/IgG (IgE part)” value (human IgE; E+ / E− part of the cell, reactivity of the parent antigen)?
**A.** E+

**Q.** What about the “Antibody reactivity IgE/IgG: IgE” value (human IgE; IgE reactivity (E+/E−) of the source antigen of the peptide) of the same substance?
**A.** E+

**Q.** And the “Antibody reactvity IgE/IgG (IgG part)” value (human IgG; G+ / G− part of the cell, reactivity of the parent antigen)?
**A.** G−

**Q.** What about the “Antibody reactivity IgE/IgG: IgG” value (human IgG; IgG reactivity (G+/G−) of the source antigen of the peptide) of the same substance?
**A.** G−

**Q.** And the “Total response IFNg SFC” value [2]?
**A.** 143 SFC

**Q.** What about the “Total response IFNg Events” value ([2]; number of response events) of the same substance?
**A.** 1

**Q.** What about the “Total response IFNg Events” value ([3]; number of positive response events) of the same substance?
**A.** 1

**Q.** What about the “Total response IFNg SFC” value ([3]; total SFC) of the same substance?
**A.** 143 SFC

**Q.** Which “Total response IL-5 Events” value [1, 7] does the source give for “882 (DVYPTVCLPMCVCVL; Phleum pratense) [Peptide 882]” here?
**A.** 0

**Q.** And the “Antibody reactvity IgE/IgG: IgE” value (human IgE; [8])?
**A.** E−

**Q.** And the “Antibody reactvity IgE/IgG: IgG” value (human IgG; [9])?
**A.** G−

**Q.** What about the “Total response IFNg Events” value [4] of the same substance?
**A.** 0

**Q.** Which results are given for “82109 (GDLYIFESRAICKYA; Phleum pratense) [Peptide 82109]”?
**A.** Total response IL-5 SFC ([1]; 15-mer peptide): 290 SFC; Total response IL-5 Events ([1]; TG allergic patients, number of positive responses): 1; Total response IL-5 SFC ([1]; TG allergic patients, total spot-forming cells): 290 SFC; Total response IL-5 Events [1, 10]: 1; Antibody reactvity IgE/IgG (IgE part) (human IgE; IgE reactivity of the parent antigen): E−; Antibody reactvity IgE/IgG: IgE (human IgE; [11]): E−; Antibody reactvity IgE/IgG (IgG part) (human IgG; IgG reactivity of the parent antigen): G−; Antibody reactvity IgE/IgG: IgG (human IgG; [12]): G−; Total response IFNg Events [5]: 0; Total response IFNg Events [6]: 0

**Q.** How did the “Total response IL-5 Events” value [1, 7] turn out when “86231 (IMQLLRDNLTLWTSD; Phleum pratense) [Peptide 86231]” was run?
**A.** 0

**Q.** What about the “Total response IL-5 Events” value [1, 10] of the same substance?
**A.** 0

**Q.** What about the “Antibody reactvity IgE/IgG: IgE” value (human IgE; [8]) of the same substance?
**A.** E−

**Q.** And the “Antibody reactvity IgE/IgG: IgE” value (human IgE; [11])?
**A.** E−

**Q.** And the “Antibody reactvity IgE/IgG: IgG” value (human IgG; [9])?
**A.** G−

**Q.** What about the “Antibody reactvity IgE/IgG: IgG” value (human IgG; [12]) of the same substance?
**A.** G−

**Q.** And the “Total response IFNg SFC” value [4]?
**A.** 73 SFC

**Q.** And the “Total response IFNg Events” value [4]?
**A.** 1

**Q.** What about the “Total response IFNg SFC” value ([6]; 15-mer peptide) of the same substance?
**A.** 73 SFC

**Q.** And the “Total response IFNg Events” value [6]?
**A.** 1
